Laboratory results published in PubChem BioAssay (NCI).
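Dose response: 5 concentrations. Exposure: 48 h. Format: 96-well plates. Endpoint: linear interpolation; highest concentration if not reached. TGI: concentration producing complete growth inhibition.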

Experiments:
Assay in all cases: inhibition of tumour cell growth, NCI panel, 48 h
[1] = system: UACC-257 melanoma
[2] = system: KM12 colon
[3] = system: EKVX NSCLC
[4] = system: M14 melanoma
[5] = system: TK-10 renal
[6] = system: SW-620 colon
[7] = system: OVCAR-8 ovarian
[8] = system: A549 NSCLC
[9] = system: SK-MEL-5 melanoma
[10] = system: NCI-H522 lung
[11] = system: OVCAR-5 ovarian
[12] = system: CAKI-1 renal
[13] = system: DU-145 prostate
[14] = system: RXF 393 renal
[15] = system: HS 578T breast
[16] = system: SNB-19 CNS
[17] = system: SF-268 CNS
[18] = system: MALME-3M melanoma
[19] = system: IGROV1 ovarian
[20] = system: OVCAR-4 ovarian
[21] = system: U251 CNS
[22] = system: RPMI-8226 leukemia
[23] = system: UO-31 renal
[24] = system: K-562 leukemia
[25] = system: SN12C renal
[26] = system: HT29 colon
[27] = system: HOP-62 NSCLC
[28] = system: MDA-MB-435
[29] = system: LOX IMVI melanoma
[30] = system: NCI-H23 lung
[31] = system: HCT-116 colon
[32] = system: ACHN renal
[33] = system: SNB-75 CNS
[34] = system: UACC-62 melanoma
[35] = system: MDA-MB-231 breast
[36] = system: OVCAR-3 ovarian
[37] = system: SR leukemia
[38] = system: MOLT-4 leukemia
[39] = system: PC-3 prostate
[40] = system: SF-295 CNS
[41] = system: HCT-15 colon
[42] = system: HL-60(TB) leukemia
[43] = system: SK-MEL-2 melanoma
[44] = system: MDA-N
[45] = system: CCRF-CEM leukemia
[46] = system: SK-OV-3 ovarian
[47] = system: 786-0 renal
[48] = system: SK-MEL-28 melanoma
[49] = system: T-47D breast
[50] = system: COLO 205 colon
[51] = system: HOP-92 NSCLC
[52] = system: NCI/ADR-RES ovarian
[53] = system: NCI-H226 lung
[54] = system: BT-549 breast
[55] = system: A498 renal
[56] = system: SF-539 CNS
[57] = system: NCI-H460 lung

For Oc1ccc2ccccc2c1N=Nc1ccc(Br)cc1, the TGI [1] was > 100 µM, the TGI [2] was > 100 µM and the TGI [3] was > 100 µM. The TGI [4] was > 100 µM, the TGI [5] was > 100 µM and the TGI [6] was > 100 µM. For the same molecule, the TGI [7] was > 100 µM, the TGI [8] was > 100 µM and the TGI [9] was > 100 µM. The TGI [10] was > 100 µM, the TGI [11] was > 100 µM and the TGI [12] was > 100 µM. The TGI [13] was > 100 µM, the TGI [14] was > 100 µM and the TGI [15] was > 100 µM. The TGI [16] was > 100 µM, the TGI [17] was > 100 µM and the TGI [18] was > 100 µM. For the same molecule, the TGI [19] was > 100 µM, the TGI [20] was 96.3 µM and the TGI [21] was > 100 µM. For the same molecule, the TGI [22] was > 100 µM, the TGI [23] was > 100 µM and the TGI [24] was > 100 µM. The TGI [25] was > 100 µM, the TGI [26] was > 100 µM and the TGI [27] was > 100 µM. For the same molecule, the TGI [28] was > 100 µM, the TGI [29] was > 100 µM and the TGI [30] was > 100 µM. For the same molecule, the TGI [31] was > 100 µM, the TGI [32] was > 100 µM and the TGI [33] was > 100 µM. For the same molecule, the TGI [34] was > 100 µM, the TGI [35] was > 100 µM and the TGI [36] was > 100 µM. For the same molecule, the TGI [37] was > 100 µM, the TGI [38] was > 100 µM and the TGI [39] was > 100 µM. For the same molecule, the TGI [40] was > 100 µM, the TGI [41] was > 100 µM and the TGI [42] was > 100 µM. For the same molecule, the TGI [43] was > 100 µM, the TGI [44] was > 100 µM and the TGI [45] was > 100 µM. The TGI [46] was > 100 µM, the TGI [47] was > 100 µM and the TGI [48] was > 100 µM. The TGI [49] was > 100 µM, the TGI [50] was > 100 µM and the TGI [51] was > 100 µM. For the same molecule, the TGI [52] was > 100 µM, the TGI [53] was > 100 µM and the TGI [54] was > 100 µM.
With CCOC(=O)NNC(=O)NCCCCNC(=O)NNC(=O)OCC the TGI [1] was > 100 µM, the TGI [2] was > 100 µM and the TGI [55] was > 100 µM. The TGI [3] was > 100 µM, the TGI [4] was > 100 µM and the TGI [5] was > 100 µM. The TGI [6] was > 100 µM, the TGI [7] was > 100 µM and the TGI [8] was > 100 µM. The TGI [9] was > 100 µM, the TGI [10] was > 100 µM and the TGI [11] was > 100 µM. The TGI [12] was > 100 µM, the TGI [13] was > 100 µM and the TGI [14] was > 100 µM. For the same molecule, the TGI [15] was > 100 µM, the TGI [16] was > 100 µM and the TGI [19] was > 100 µM. For the same molecule, the TGI [21] was > 100 µM, the TGI [22] was > 100 µM and the TGI [23] was > 100 µM. The TGI [24] was > 100 µM, the TGI [25] was > 100 µM and the TGI [26] was > 100 µM. For the same molecule, the TGI [27] was > 100 µM, the TGI [28] was > 100 µM and the TGI [29] was > 100 µM. For the same molecule, the TGI [30] was > 100 µM, the TGI [56] was > 100 µM and the TGI [31] was > 100 µM. The TGI [32] was > 100 µM, the TGI [33] was > 100 µM and the TGI [34] was > 100 µM. The TGI [35] was > 100 µM, the TGI [36] was > 100 µM and the TGI [38] was > 100 µM. The TGI [39] was > 100 µM, the TGI [40] was > 100 µM and the TGI [41] was > 100 µM. For the same molecule, the TGI [42] was > 100 µM, the TGI [57] was > 100 µM and the TGI [43] was > 100 µM. The TGI [44] was > 100 µM, the TGI [45] was > 100 µM and the TGI [46] was > 100 µM. For the same molecule, the TGI [47] was > 100 µM, the TGI [48] was > 100 µM and the TGI [49] was > 100 µM. For the same molecule, the TGI [50] was > 100 µM, the TGI [51] was > 100 µM and the TGI [52] was > 100 µM. The TGI [53] was > 100 µM and the TGI [54] was > 100 µM.
